# Experimental data reported in patent US20200347153A1, “METHODS FOR FORMING INCLUSION COMPLEXES WITH HYDROPHILIC BETA-CYCLODEXTRIN DERIVATIVES AND COMPOSITIONS THEREOF” (priority 2019, published 2020).
# Where two headings read alike, the source gives them in different places.
# Columns and labels:
# [1] = cited from earlier work
# [2] = Stability studies (shelf life, visible changes); format: physicochemical
# Experimental: The effects of HPBCD on the shelf life stability of each active agent is studied at pre-determined temperatures for 11 weeks. Real time stability is observed at −17° C., 5° C. and 25° C., and accelerated stability is observed at 40° C. For accelerated stability, one day at 40° C. is equivalent to one week, thus the data represents 77 weeks. […] The vials are then placed in a temperature-controlled oven or refrigerator/freezer. The compounds are checked daily and any visible changes are noted.
# [3] = Solubility in water (statements); format: physicochemical
# Phase solubility studies = conditions: active with HPBCD; calculated using Eq. (1)
# [4] = cited from earlier work; remark: listed apart in the source
# [5] = 5° C., Week 10, visible changes
# [6] = 5° C., Week 11, visible changes
# [7] = 25° C., Week 1, visible changes
# [8] = 25° C., Week 2, visible changes
# [9] = 25° C., Week 3, visible changes
# [10] = 25° C., Week 4, visible changes
# [11] = 25° C., Week 5, visible changes
# [12] = 25° C., Week 6, visible changes
# [13] = 25° C., Week 7, visible changes
# [14] = 25° C., Week 8, visible changes
# [15] = 25° C., Week 9, visible changes
# [16] = 25° C., Week 10, visible changes
# [17] = 25° C., Week 11, visible changes
# [18] = 40° C. accelerated stability, Week 1, visible changes
# [19] = 40° C. accelerated stability, Week 2, visible changes
# [20] = 40° C. accelerated stability, Week 3, visible changes
# [21] = 40° C. accelerated stability, Week 4, visible changes
# [22] = 40° C. accelerated stability, Week 5, visible changes
# [23] = 40° C. accelerated stability, Week 6, visible changes
# [24] = 40° C. accelerated stability, Week 7, visible changes
# [25] = 40° C. accelerated stability, Week 8, visible changes
# [26] = 40° C. accelerated stability, Week 9, visible changes
# [27] = 40° C. accelerated stability, Week 10, visible changes
# [28] = 40° C. accelerated stability, Week 11, visible changes
compound,measurement,setting,value
"1,3-diazacyclopenta-2,4-diene [imidazole]",pKa of conjugate acid (imidazolium ion),[1],approximately 7.0
Nc1cc(N2CCCCC2)nc(N)[n+]1[O-] [Minoxidil],Stability of Actives at 5° C.,"[2]; 5° C., Week 1, visible changes",0
same,Stability of Actives at 5° C.,"[2]; 5° C., Week 2, visible changes",0
same,Stability of Actives at 5° C.,"[2]; 5° C., Week 3, visible changes",0
same,Stability of Actives at 5° C.,"[2]; 5° C., Week 4, visible changes",0
same,Stability of Actives at 5° C.,"[2]; 5° C., Week 5, visible changes",0
same,Stability of Actives at 5° C.,"[2]; 5° C., Week 6, visible changes",0
same,Stability of Actives at 5° C.,"[2]; 5° C., Week 7, visible changes",0
same,Stability of Actives at 5° C.,"[2]; 5° C., Week 8, visible changes",0
same,Stability of Actives at 5° C.,"[2]; 5° C., Week 9, visible changes",0
same,Stability of Actives at 5° C.,[2]; [5],0
same,Stability of Actives at 5° C.,[2]; [6],0
same,Stability of Actives at 25° C.,[2]; [7],0
same,Stability of Actives at 25° C.,[2]; [8],0
same,Stability of Actives at 25° C.,[2]; [9],0
same,Stability of Actives at 25° C.,[2]; [10],0
same,Stability of Actives at 25° C.,[2]; [11],0
same,Stability of Actives at 25° C.,[2]; [12],0
same,Stability of Actives at 25° C.,[2]; [13],0
same,Stability of Actives at 25° C.,[2]; [14],0
same,Stability of Actives at 25° C.,[2]; [15],0
same,Stability of Actives at 25° C.,[2]; [16],0
same,Stability of Actives at 25° C.,[2]; [17],0
same,Stability of Actives at 40° C.,[2]; [18],0
same,Stability of Actives at 40° C.,[2]; [19],0
same,Stability of Actives at 40° C.,[2]; [20],0
same,Stability of Actives at 40° C.,[2]; [21],0
same,Stability of Actives at 40° C.,[2]; [22],0
same,Stability of Actives at 40° C.,[2]; [23],0
same,Stability of Actives at 40° C.,[2]; [24],0
same,Stability of Actives at 40° C.,[2]; [25],0
same,Stability of Actives at 40° C.,[2]; [26],0
same,Stability of Actives at 40° C.,[2]; [27],0
same,Stability of Actives at 40° C.,[2]; [28],0
COc1cc(CCC(=O)CC(=O)CCc2ccc(O)c(OC)c2)ccc1O [Tetrahydrocurcumin],Stability of Actives at 5° C.,[2]; 1 week,0
same,Stability of Actives at 25° C.,[2]; 1 week,0
same,Stability of Actives at 40° C.,[2]; 1 week,0
same,Stability of Actives at −17 C.,[2]; 1 week,0
same,Stability of Actives at 5° C.,[2]; 2 week,0
same,Stability of Actives at 25° C.,[2]; 2 week,0
same,Stability of Actives at 40° C.,[2]; 2 week,0
same,Stability of Actives at −17 C.,[2]; 2 weeks,0
same,Stability of Actives at 5° C.,[2]; 3 week,0
same,Stability of Actives at 25° C.,[2]; 3 week,0
same,Stability of Actives at 40° C.,[2]; 3 week,0
same,Stability of Actives at −17 C.,[2]; 3 weeks,0
same,Stability of Actives at 5° C.,[2]; 4 week,0
same,Stability of Actives at 25° C.,[2]; 4 week,0
same,Stability of Actives at 40° C.,[2]; 4 week,0
same,Stability of Actives at −17 C.,[2]; 4 weeks,0
same,Stability of Actives at 5° C.,[2]; 5 week,0
same,Stability of Actives at 25° C.,[2]; 5 week,0
same,Stability of Actives at 40° C.,[2]; 5 week,0
same,Stability of Actives at −17 C.,[2]; 5 week,0
same,Stability of Actives at 5° C.,[2]; 6 week,0
same,Stability of Actives at 25° C.,[2]; 6 week,0
same,Stability of Actives at 40° C.,[2]; 6 week,0
same,Stability of Actives at −17 C.,[2]; 6 week,0
same,Stability of Actives at 5° C.,[2]; 7 week,0
same,Stability of Actives at 25° C.,[2]; 7 week,0
same,Stability of Actives at 40° C.,[2]; 7 week,0
same,Stability of Actives at −17 C.,[2]; 7 week,0
same,Stability of Actives at 5° C.,[2]; 8 week,0
same,Stability of Actives at 25° C.,[2]; 8 week,0
same,Stability of Actives at 40° C.,[2]; 8 week,0
same,Stability of Actives at −17 C.,[2]; 8 week,0
same,Stability of Actives at 5° C.,[2]; 9 week,0
same,Stability of Actives at 25° C.,[2]; 9 week,0
same,Stability of Actives at 40° C.,[2]; 9 week,0
same,Stability of Actives at −17 C.,[2]; 9 week,0
same,Stability of Actives at 5° C.,[2]; 10 week,0
same,Stability of Actives at 25° C.,[2]; 10 week,0
same,Stability of Actives at 40° C.,[2]; 10 week,0
same,Stability of Actives at −17 C.,[2]; 10 weeks,0
same,Stability of Actives at 5° C.,[2]; 11 week,0
same,Stability of Actives at 25° C.,[2]; 11 week,0
same,Stability of Actives at 40° C.,[2]; 11 week,0
same,Stability of Actives at −17 C.,[2]; 11 weeks,0
NC(=O)c1cccnc1 [Niacinamide],Stability of Actives at 5° C.,"[2]; 5° C., Week 1, visible changes",0
same,Stability of Actives at 25° C.,[2]; [7],0
same,Stability of Actives at 25° C.,[2]; [8],0
same,Stability of Actives at 25° C.,[2]; [9],0
same,Stability of Actives at 25° C.,[2]; [10],0
same,Stability of Actives at 25° C.,[2]; [11],0
same,Stability of Actives at 25° C.,[2]; [12],0
same,Stability of Actives at 25° C.,[2]; [13],0
same,Stability of Actives at 25° C.,[2]; [14],0
same,Stability of Actives at 25° C.,[2]; [15],0
same,Stability of Actives at 25° C.,[2]; [16],0
same,Stability of Actives at 25° C.,[2]; [17],0
same,Stability of Actives at 40° C.,[2]; [18],0
same,solubility in water,[3],strong water solubility
same,association constant (Kc) for complex formation,Phase solubility studies,0.79856 M⁻¹
OC[C@H]1O[C@@H]2O[C@H]3[C@H](O)[C@@H](O)[C@@H](O[C@H]4[C@H](O)[C@@H](O)[C@@H](O[C@H]5[C@H](O)[C@@H](O)[C@@H](O[C@H]6[C@H](O)[C@@H](O)[C@@H](O[C@H]7[C@H](O)[C@@H](O)[C@@H](O[C@H]8[C@H](O)[C@@H](O)[C@@H](O[C@H]1[C@H](O)[C@H]2O)O[C@@H]8CO)O[C@@H]7CO)O[C@@H]6CO)O[C@@H]5CO)O[C@@H]4CO)O[C@@H]3CO [β-Cyclodextrin],solubility in water,[4]; room temperature,approximately 19 mg/mL
"CC(O)COC[C@H]1O[C@@H]2O[C@H]3[C@H](O)[C@@H](O)[C@@H](O[C@H]4[C@H](O)[C@@H](O)[C@@H](O[C@H]5[C@H](O)[C@@H](O)[C@@H](O[C@H]6[C@H](O)[C@@H](O)[C@@H](O[C@H]7[C@H](O)[C@@H](O)[C@@H](O[C@H]8[C@H](O)[C@@H](O)[C@@H](O[C@H]1[C@H](O)[C@H]2O)O[C@@H]8COCC(C)O)O[C@@H]7COCC(C)O)O[C@@H]6COCC(C)O)O[C@@H]5COCC(C)O)O[C@@H]4COCC(C)O)O[C@@H]3COCC(C)O (stereo partly drawn) [HPBCD, Hydroxypropyl β-cyclodextrin]",Stability of Actives at 5° C.,"[2]; 5° C., Week 1, visible changes",0
same,Stability of Actives at 5° C.,"[2]; 5° C., Week 2, visible changes",0
same,Stability of Actives at 5° C.,"[2]; 5° C., Week 3, visible changes",0
same,Stability of Actives at 5° C.,"[2]; 5° C., Week 4, visible changes",0
same,Stability of Actives at 5° C.,"[2]; 5° C., Week 5, visible changes",0
same,Stability of Actives at 5° C.,"[2]; 5° C., Week 6, visible changes",0
same,Stability of Actives at 5° C.,"[2]; 5° C., Week 7, visible changes",0
same,Stability of Actives at 5° C.,"[2]; 5° C., Week 8, visible changes",0
same,Stability of Actives at 5° C.,"[2]; 5° C., Week 9, visible changes",0
same,Stability of Actives at 5° C.,[2]; [5],0
same,Stability of Actives at 5° C.,[2]; [6],0
same,Stability of Actives at 25° C.,[2]; [7],0
same,Stability of Actives at 25° C.,[2]; [8],0
same,Stability of Actives at 25° C.,[2]; [9],0
same,Stability of Actives at 25° C.,[2]; [10],0
same,Stability of Actives at 25° C.,[2]; [11],0
same,Stability of Actives at 25° C.,[2]; [12],0
same,Stability of Actives at 25° C.,[2]; [13],0
same,Stability of Actives at 25° C.,[2]; [14],0
same,Stability of Actives at 25° C.,[2]; [15],0
same,Stability of Actives at 25° C.,[2]; [16],0
same,Stability of Actives at 25° C.,[2]; [17],0
same,Stability of Actives at 40° C.,[2]; [18],0
same,Stability of Actives at 40° C.,[2]; [19],0
same,Stability of Actives at 40° C.,[2]; [20],0
same,Stability of Actives at 40° C.,[2]; [21],0
same,Stability of Actives at 40° C.,[2]; [22],0
same,Stability of Actives at 40° C.,[2]; [23],0
same,Stability of Actives at 40° C.,[2]; [24],0
same,Stability of Actives at 40° C.,[2]; [25],0
same,Stability of Actives at 40° C.,[2]; [26],0
same,Stability of Actives at 40° C.,[2]; [27],0
same,Stability of Actives at 40° C.,[2]; [28],0
same,aqueous solubility,[4],more than 60 g/100 mL
